Results as given in ChEMBL document CHEMBL1125946, “Total synthesis of a homochiral arene-fused prostacyclin analog” (Bioorg Med Chem Lett, 1991).

Organism: Homo sapiens
Assay: Concentration required for the inhibition of collagen induced platelet aggregation; inactive
Assay type: functional

Question: With O=C(O)COc1ccc2c(c1)CC[C@@H]1[C@@H](C#C[C@@H](O)C3CCCCC3)[C@H](O)C[C@H]21 as the compound, how does the IC50 read?
Answer: Its IC50 is > 10 µM.
